Key:
[1] = target: T1, ERp57 (Homo sapiens, UniProt P30101); assay: Maleimide-polyethylene glycol-2-biotin (MPB) binding; conditions: 150 μM inhibitor, FIG. 2c, FIG. 8
T1 construct: FLAG; made in house; host or cells: Escherichia coli Origami B (DE3), pET-15b
T1 sequence (P30101 25-505): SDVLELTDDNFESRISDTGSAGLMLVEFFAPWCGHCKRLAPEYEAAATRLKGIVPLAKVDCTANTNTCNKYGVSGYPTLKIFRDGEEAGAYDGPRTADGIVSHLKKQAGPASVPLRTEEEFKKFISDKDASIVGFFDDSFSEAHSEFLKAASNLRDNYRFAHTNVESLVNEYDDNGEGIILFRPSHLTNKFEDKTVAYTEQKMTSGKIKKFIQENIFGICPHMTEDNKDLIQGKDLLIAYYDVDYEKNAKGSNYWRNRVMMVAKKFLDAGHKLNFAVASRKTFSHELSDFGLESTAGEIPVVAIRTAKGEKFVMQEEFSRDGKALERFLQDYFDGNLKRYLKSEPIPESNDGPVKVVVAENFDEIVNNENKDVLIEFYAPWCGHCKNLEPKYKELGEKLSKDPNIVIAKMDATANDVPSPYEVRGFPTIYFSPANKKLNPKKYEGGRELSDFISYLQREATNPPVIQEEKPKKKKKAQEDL
Experimental: (§1) Maleimide-Polyethanol glycol-2-Biotin (MPB) binding experiments were performed in a reaction volume of 37.5 μL with 5 μM of thiol isomerase or bovine serum albumin (BSA) in Tris-buffered saline (TBS), in the presence and absence of 1 mM of N-ethylmaleimide (NEM) or bacitracin, and 150 μM of the mentioned other inhibitors. The reaction mixture was incubated at 37° C. for 1 hour. Subsequently, the reaction mixtures were incubated with 25 μM of MPB. The labeling was performed for 20 minutes at 25° C. A total of 12.5 μL of 4× Laemmli Sample Buffer with 5% β-mercaptoethanol was added to each of the samples, followed by heating at 95° C. for 10 minutes. From each sample, 10 μL was loaded on a 12% SDS-PAGE gel, followed by transfer on a nitrocellulose membrane. After blocking the membrane with TBS-T containing 5% BSA for one hour, the membrane was incubated with a 1:2000 dilution of Cy5-tagged Streptavidin for an hour in the dark. Detection of the immunoblots was performed using ImageQuant LAS 4000 and analysis was performed using ImageQuant TL software.

[2] = target: T2, thioredoxin (Homo sapiens, UniProt P10599); assay: as above; conditions: 150 μM inhibitor, FIG. 2c, FIG. 8
T2 sequence (P10599 1-105): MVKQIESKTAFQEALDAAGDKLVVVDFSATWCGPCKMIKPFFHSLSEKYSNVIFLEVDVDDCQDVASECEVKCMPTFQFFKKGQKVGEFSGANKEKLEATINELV
Experimental: as §1

[3] = target: T3, ERp5 (Homo sapiens, UniProt Q15084); assay: as above; conditions: 150 μM inhibitor, FIG. 2c, FIG. 8
T3 construct: recombinant His-tagged full-length ERp5, ERp72 and PDI domain fragments; His; made in house; host or cells: Escherichia coli Origami B (DE3), pET-15b
T3 sequence (Q15084 20-440): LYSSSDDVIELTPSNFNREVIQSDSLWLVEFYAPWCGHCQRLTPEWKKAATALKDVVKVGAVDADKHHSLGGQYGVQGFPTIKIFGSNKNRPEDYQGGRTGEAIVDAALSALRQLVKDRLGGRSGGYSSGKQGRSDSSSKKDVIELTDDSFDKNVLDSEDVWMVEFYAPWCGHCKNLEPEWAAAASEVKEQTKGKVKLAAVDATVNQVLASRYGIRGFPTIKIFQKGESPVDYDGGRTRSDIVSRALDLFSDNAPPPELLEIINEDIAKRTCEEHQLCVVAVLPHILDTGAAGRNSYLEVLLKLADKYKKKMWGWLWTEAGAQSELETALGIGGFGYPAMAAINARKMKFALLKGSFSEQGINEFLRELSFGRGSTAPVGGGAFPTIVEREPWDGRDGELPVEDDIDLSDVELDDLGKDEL
Experimental: as §1

[4] = target: T4, human wild-type PDI (Homo sapiens, UniProt P07237); assay: Redox potential determination by differential cysteine alkylation and mass spectrometry
T4 construct: FLAG; made in house; host or cells: Escherichia coli Origami B (DE3), pET-15b
Experimental: The redox potentials of the a (Cys53-Cys56) and a′ (Cys397-Cys400) active-site dithiols/disulfides of human wild-type PDI in the absence or presence of bepristat 2b were determined by differential cysteine alkylation and mass spectrometry. Recombinant PDI (5 μM) was incubated in the absence or presence of bepristat 2b (50 μM) in argon-flushed phosphate-buffered saline containing 0.1 mM EDTA, 0.2 mM oxidized glutathione (GSSG, Sigma) and various concentrations of reduced glutathione (GSH, Sigma) for 18 h at room temperature. Microcentrifuge tubes were flushed with argon prior to sealing to prevent oxidation by ambient air during the incubation period. […]
The fraction of reduced active-site disulfide bond was measured from the relative ion abundance of peptides containing ^12C-IPA and ^13C-IPA. […] The area was calculated using the automated peak detection function built into the software. […] The results were expressed as the ratio of reduced to oxidized protein and fitted to equation 1: […]
where R is the fraction of reduced protein at equilibrium, B is the baseline fraction of the cysteine in the population that is in the reduced state and Keq is the equilibrium constant. The standard redox potential (E^0′) of the PDI active-site disulfides were calculated using the Nernst equation (equation 2): […]

T4 sequence (P07237 18-508): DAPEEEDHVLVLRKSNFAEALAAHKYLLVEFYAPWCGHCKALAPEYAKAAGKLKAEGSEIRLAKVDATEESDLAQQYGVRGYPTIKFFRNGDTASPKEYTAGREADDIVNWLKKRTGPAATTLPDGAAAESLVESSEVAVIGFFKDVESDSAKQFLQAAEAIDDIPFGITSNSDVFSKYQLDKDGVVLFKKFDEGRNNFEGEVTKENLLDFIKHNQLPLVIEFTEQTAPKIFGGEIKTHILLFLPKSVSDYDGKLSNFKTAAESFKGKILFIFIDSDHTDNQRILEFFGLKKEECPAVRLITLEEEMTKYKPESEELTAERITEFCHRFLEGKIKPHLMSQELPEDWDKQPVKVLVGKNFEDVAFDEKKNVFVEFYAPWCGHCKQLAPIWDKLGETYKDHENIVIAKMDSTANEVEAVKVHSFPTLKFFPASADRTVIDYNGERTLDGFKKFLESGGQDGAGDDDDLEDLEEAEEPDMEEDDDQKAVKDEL

C#CC(=O)N(c1ccc(OC)cc1OC)C(C(=O)NCC(=O)OCC)c1cccs1 (stereo not shown) [PACMA-31, N-(2,4-Dimethoxyphenyl)-N-(1-oxo-2-propyn-1-yl)-2-(2-thienyl)glycyl-glycine ethyl ester, reference compound]
reaction of MPB with the catalytic cysteines of ERp57 [1]: interfered with the reaction of maleimide-polyethylene glycol-2-biotin (MPB) | reaction of MPB with the catalytic cysteines of thioredoxin [2]: interfered with the reaction of maleimide-polyethylene glycol-2-biotin (MPB) | reaction of MPB with the catalytic cysteines of ERp5 [3]: interfered with the reaction of maleimide-polyethylene glycol-2-biotin (MPB)

CCOC(=O)c1c(CNCCN(CC)CC)n(-c2ccccc2)c2cc(Br)c(O)cc12 [bepristat 2a]
active site disulfide bond formation under equilibrium conditions [4]: impairs active site disulfide bond formation
